The values that follow come from patent US11185539B2 (priority 2017, dated 2021).

Data set [1] concerns cardiomyocyte cell line HL-1. Put plainly: Proliferation of cardiomyocyte cell line HL-1, BrdU-ELISA. In kind it is cell-based. The conditions noted are these: same concentrations as on HCFs, 24 h, DMSO control. As to the method: HCFs and HL-1 cells were treated with Bufalin, Gitoxigenin, Lycorine and Anisomycin for 24 h with the same concentrations as indicated in Example 1 and proliferation of HCFs and cardiomyocyte cell line HL-1 cells was measured by BrdU-ELISA, DMSO refers as a control (see FIG. 2B, 3B, 4B, 5B). The cell proliferation ELISA is a colorimetric alternative to quantitate cell proliferation based on the measurement of BrdU incorporation during DNA synthesis in proliferating cells. After its incorporation into DNA, BrdU is detected by immunoassay by using antibodies being highly specific for BrdU. First, HCFs and/or HL-1 cells are cultured together with various dilutions of test substances (e.g. mitogens, growth factors, cytokines and test compounds such as Bufalin, Gitoxigenin, Lycorine and Anisomycin as mentioned above etc.) in a 96-well in a final volume of 100 μl/well in a humified atmosphere of 37° C. Afterwards, 10 μl/well BrdU labeling solution is added to the cells being cultured in 100 μl/well (final concentration: 10 μM BrdU). Then, cells were re-incubated for additional 2 to 24 h at 37° C. Next, labeling solution is removed and 200 μl/well FixDenat is added to the cells and incubated for 30 min at 15 to 25° C. Then, 100 μl/well anti-BrdU-POD working solution is added and incubated for approximately 90 min, after FixDenat is removed. Next, antibody conjugate is removed and wells are washed with 200 μl-300 μl/well Washing solution (PBS, 1×). After the washing solution is removed, 100 μl/well Substrate solution is added and it is incubated again until color development is sufficient for photometric detection. Further, HCFs were treated with said compounds (Lycorine: 5 μM, Bufalin: 1 μM, Gitoxigenin: 1 μM and Anisomycin: 1 μM) for 24 h as indicated again and subjected to FACS analysis after Annexin-7AAD-staining (see FIG. 2C, 3C, 4C, 5C). After the treatment with said compounds, annexin-7AAD-staining starts with inducing apoptosis in HCFs by a desired method, known to the person skilled in the art, a negative control (w/o induction and staining) and a positive control (f. ex. 500 μM H2O2 or 3 μM Staurosporin) is also needed. Then, the medium with HCFs is transferred into a falcon, washed with PBS and trypsinized. Everything is centrifuged for 5 min at 300×g and then the supernatant is aspirated. The pellet is re-suspended in 200 μl Annexin Red/7AAD Working Solution (1:20, 5 μl Annexin Red/7AAD+195 μl 1× Assay Buffer) and transferred into an Easy Cap Eppendorf tube. After incubation of 15 min at 37° C., it is centrifuged at room temperature (RT) for 5 min at 300×g. […] Samples are now ready for acquisition on a flow cytometer (blue and red laser).

In data set [2] the test system is C57BL/6 mice with angiotensin II-induced diastolic heart failure. Put plainly: Echocardiography in murine model of angiotensin II-induced cardiac fibrotic disease (two weeks). In kind it is in vivo. To be noted: i.p. every other day, Bufalin 0.5, Lycorine 4.5, Anisomycin 10, Gitoxigenin 0.01 mg/kg, day 14. The protocol: (§1) Diastolic heart failure (HF) was induced in C57BL/6 mice via implantation of angiotensin II filled minipumps. Male C57BL/6 mice 8-10 weeks old were used in the present invention being based on a C57BL/6N-background (Charles River, Germany).
(§2) For implantation of angiotension II filled minipumps, Angiotensin-II is applied by osmotic minipumps for two weeks (Alzet® [Modell 1001]). The recommended dose amounts for 1.5 or 3.0 mg/kg/per day. The minipumps are filled under sterile conditions with Angiotensin-II or with isotonic saline solution functioning as a control substance. Implantation takes place under intraperitoneal injection anaesthesia. […] Mice are then fixed on a pre-heated operating table and are provided with Bepanthen eye salve against drying out of the conjunctives. The operating field is located in the right caudal third of the back. It is shaved and desinfected with Braunol, afterwards it is coated with a 0.5% Lidocain-solution. After a period of one hour implantation can be started. The skin is cut through vertical to the back line, preferably the length is one centimeter. A pocket from the cutting line to cranial is subcutaneously formed. Herein, the minipumps are injected. Afterwards, the skin is then closed with a 5-0 Prolene string with interrupted sutures. Then, the closed wound is coated again with Braunol. For preventing hypothermia mice wake up in their cages, which are placed up to one-third on a terrarium-warming mat with regulated temperatures of 37°. Surgery amounts for 5 minutes/per animal.
(§3) Next, the natural compounds (Bufalin, Gitoxigenin, Lycorine, and Anisomycin) were injected intraperitoneally every other day during two consecutive weeks starting two days after the operation (see FIG. 6). DMSO was also injected into C57BL/6 mice with induced cardiac remodeling as a control. Cardiac function was assessed echocardiographically and fibrosis-development via collagen staining with picosirius-red in histological sections of the hearts (Example 4).
Diastolic HF was induced in C57BL/6 mice and the natural compounds were injected as indicated in Example 3. Fourteen days after the operation, cardiac function of the mice was assessed echocardiographically (n=9-15 per group) by treating the mice with said compounds (Bufalin: 0.5 mg/kg, Lycorine 4.5 mg/kg, Anisomycin: 10 mg/kg and Gitoxigenin: 0.01 mg/kg). A decrease of the Myocardial Performance Index (MPI) as well as a reduction of the isovolumetric relaxation time (IVRT) and an increase in E to A peak ratio (E/A) (the ratio of the early (E) to late (A) ventricular filling velocities as a marker of the function of the left ventricle of the heart) indicate improvement of both global (MPI) and diastolic (IVRT and E/A) function of the heart (see FIGS. 7 and 9).

Data set [3] has the same test system. Put plainly: Picrosirius-red collagen staining of heart sections, angiotensin II model (two weeks). Format: in vivo. To be noted: i.p. every other day, Bufalin 0.5, Lycorine 4.5, Anisomycin 10, Gitoxigenin 0.01 mg/kg, day 14. As to the method:
as §1, §2, §3
Further, fourteen days after the operation, histological sections of the hearts were stained for collagen using picrosirius-red (n=3-5 per group) after treatment with said compounds (Bufalin: 0.5 mg/kg, Lycorine 4.5 mg/kg, Anisomycin: 10 mg/kg and Gitoxigenin: 0.01 mg/kg).

The subject of another data set is miR-671-5p. Briefly: miR-671-5p expression in HCFs, qRT-PCR. Format: cell-based, human. To be noted: Lycorine 5 μM, others 1 μM, 24 h, vs DMSO.
Data set [4] in a line: Plasma markers of kidney and liver damage, angiotensin II model. In kind it is in vivo, mice. The conditions noted are these: Bufalin 0.5, Gitoxigenin 0.01, Lycorine 4.5, Anisomycin 10 mg/kg i.p. every other day; day 14. The protocol:
HF was induced in mice (Example 3) and Bufalin (0.5 mg/kg), Gitoxigenin (0.01 mg/kg), Lycorine (4.5 mg/kg), and Anisomycin (10 mg/kg) were injected as indicated in Example 3. Fourteen days after the operation, EDTA-plasma samples were drawn (n=2-3 per group) (see FIGS. 26 and 27).

As to `O[C@H]1[C@H]2c3cc4c(cc3CN3CCC(=C[C@@H]1O)[C@H]23)OCO4` [Lycorine], in data set [1], the “proliferation of the cardiomyocyte cell line HL-1” value (from here on “proliferation”) is given as “no impact”. Further, in data set [2], the “E to A peak ratio (E/A)” value is reported as “increase”, the “Myocardial Performance Index (MPI)” value is reported as “decrease” and the “isovolumetric relaxation time (IVRT)” value is listed as “reduction”. In addition, in data set [3], the “collagen deposition in heart sections (picrosirius-stained areas)” value (“collagen deposition in heart sections” for short) was “prominent reduction of collagen deposition”. Besides, the “expression levels of miR-671-5p (normalized to RNU48)” value in the data set with miR-671-5p was “decreased”. Moreover, in data set [4], the “plasma marker of kidney and liver damage (GOT, GPT, creatinine, urea)” value (“plasma marker of kidney and liver damage” for short) is reported as “no elevation”.

As to `C[C@]12CC[C@H](O)C[C@H]1CC[C@@H]1[C@@H]2CC[C@]2(C)[C@@H](C3=CC(=O)OC3)[C@@H](O)C[C@]12O` [Gitoxigenin], the “proliferation” value in data set [1] is recorded as “no impact”. Moreover, in data set [2], the “E to A peak ratio (E/A)” value was “increase”, the “Myocardial Performance Index (MPI)” value is recorded as “decrease” and the “isovolumetric relaxation time (IVRT)” value is on record as “reduction”. The “collagen deposition in heart sections” value in data set [3] is reported as “prominent reduction of collagen deposition”. In the data set with miR-671-5p, the “expression levels of miR-671-5p (normalized to RNU48)” value is on record as “decreased”. For the same compound, the “plasma marker of kidney and liver damage” value in data set [4] was “no elevation”.

As for `COc1ccc(C[C@H]2NC[C@H](O)[C@H]2OC(C)=O)cc1` [Anisomycin], in data set [1], the “proliferation” value was “no impact”. Besides, in data set [2], the “E to A peak ratio (E/A)” value is reported as “increase”, the “Myocardial Performance Index (MPI)” value is listed as “decrease” and the “isovolumetric relaxation time (IVRT)” value is “reduction”. Moreover, in data set [3], the “collagen deposition in heart sections” value is “prominent reduction of collagen deposition”. Besides, the “expression levels of miR-671-5p (normalized to RNU48)” value in the data set with miR-671-5p is recorded as “decreased”. The “plasma marker of kidney and liver damage” value in data set [4] was “no elevation”.

For the compound `C[C@]12CC[C@H](O)C[C@H]1CC[C@@H]1[C@@H]2CC[C@]2(C)[C@@H](c3ccc(=O)oc3)CC[C@]12O` [Bufalin], the “proliferation” value in data set [1] is “no impact”. Further, in data set [2], the “E to A peak ratio (E/A)” value is reported as “increase”, the “Myocardial Performance Index (MPI)” value is on record as “decrease” and the “isovolumetric relaxation time (IVRT)” value is recorded as “reduction”. In addition, in data set [3], the “collagen deposition in heart sections” value is “prominent reduction of collagen deposition”. For the same compound, in the data set on miR-671-5p, the “expression levels of miR-671-5p (normalized to RNU48)” value is reported as “decreased”. In addition, the “plasma marker of kidney and liver damage” value in data set [4] is on record as “no elevation”.
